This note sets out measurements from publication PMC8908036, “N-Acetyldopamine dimers from Oxya chinensis sinuosa attenuates lipopolysaccharides induced inflammation and inhibits cathepsin C activity” (Computational and Structural Biotechnology Journal, 2022).

For the experiment, the target named is T1, cathepsin C (Mus musculus, UniProt P97821).
T1 construct: gene Ctsc
The experiment is described as follows: colorimetric enzyme inhibition with H-Gly-Phe-β-naphthylamide; Lineweaver-Burk kinetics and secondary plots (IC50 […]; Kis […]). The format is biochemical.

T1 sequence (P97821 25-134): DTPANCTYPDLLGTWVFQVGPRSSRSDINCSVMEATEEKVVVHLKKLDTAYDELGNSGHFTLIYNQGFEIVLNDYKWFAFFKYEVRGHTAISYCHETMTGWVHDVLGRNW
T1 sequence (P97821 231-462): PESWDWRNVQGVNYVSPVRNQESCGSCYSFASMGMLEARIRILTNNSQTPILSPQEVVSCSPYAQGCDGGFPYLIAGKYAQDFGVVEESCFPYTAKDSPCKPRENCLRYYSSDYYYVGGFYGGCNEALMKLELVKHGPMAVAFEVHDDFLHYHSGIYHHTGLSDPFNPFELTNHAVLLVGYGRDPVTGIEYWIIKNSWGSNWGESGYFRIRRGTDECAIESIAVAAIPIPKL

Compound `CC(=O)NCCc1ccc2c(c1)O[C@H](c1ccc(O)c(O)c1)[C@@H](NC(C)=O)O2` [compound 1, (2R,3S)-2-(3′,4′-dihydroxyphenyl)-3-acetylamino-7-(N-acetyl-2″-aminoethyl)-1,4-benzodioxane] yielded a Ki of 71.6 ± 10.2 µM.
